According to patent US20260242390A1, “TOTAL SYNTHESES OF PORTIMINE A AND ANALOGUES THEREOF AS SMALL MOLECULE MODULATORS OF NMD3” (priority 2023, published 2026):

Assays:
[1] = tested on: HepG2; assay: Broad cell line profiling, HepG2; type: cell-based; settings: Homo sapiens; HepG2, Hepatocellular Carcinoma; read-out: PA IC50
Text: (§1) • A panel of human and mouse cancer cell types used to assess the breadth of PA activity, including multiple therapy resistant metastatic mesenchymal tumor cell lines and primary glioblastoma patient-derived metastatic stem/tumor initiating cell populations.

[2] = tested on: MCF-7; assay: Broad cell line profiling, MCF-7; type: cell-based; settings: Homo sapiens, MCF7; MCF-7, Breast Adenocarcinoma; read-out: PA IC50
Text: as §1

[3] = tested on: Jurkat; assay: Broad cell line profiling, Jurkat; type: cell-based; settings: Human Leukemia, read-out: PA IC50
Text: as §1

[4] = tested on: MC38 colon carcinoma; assay: MC38 Syngeneic Tumor Xenograft Model; type: in vivo, mouse; settings: 0.3 or 1.0 mg/kg, i.p.
Protocol: FIG. 4. Validation of NMD3 as target of Portimine A by Chemo-precipitation (ChP). Portimine A mouse pharmacokinetic properties and fast acting in vitro cell-based target engagement properties based on compound wash-out. (A) Pharmacokinetic studies of mouse intraperitoneal (i.p.) and oral (p.o.) administration for portimine (n=3). […] Impact of PA [0.3 or 1 mg/kg intraperitoneally] on MC38 tumor growth in WT mice (n=6). (C) Kaplan-Myer survival curve of WT MC38 tumor-bearing mice (n=6) after treatment with PA as described in (D). Mice were euthanized when tumor area exceeded 2000 mm^3. Statistical analysis was performed using ANOVA analysis followed by multiple comparisons test, * p≤0.05. Treatment condition: Jurkat (60 M per condition); PA-DA/ePA-DA concentration: 0.5 uM, PA or ePA: 5 uM; Incubate with probe with or without competitors (PA, ePA) for 30 min; UV irradiated for 20 min. (0.5 uM PA-DA add a no-UV condition); Standard pulldown & biotin-enrichment and western blot analysis (Elute condition: 2× sample buffer+500 uM biotin, boil for 20 mins); Primary antibody NMD3 (ProteinTech, 1:150), Actin (BioRad, 1:10000).
FIG. 9. […] (A) Systemic Portimine A in MC38 Syngeneic Tumor Xenograft Model; and (B) Systemic Portimine A in HT-1080 Tumor Xenograft Model. […]

For C=CC1=C[C@@H]2[C@@H]3O[C@]4(CC[C@H](O4)C(C)C[C@@H](O)C3=O)CC(O)C3=NCC[C@@]32CC1 (stereo partly shown) [PA, portimine A], the IC50 [1] was 4.8 nM, the IC50 [2] was 0.77 nM and the IC50 [3] was 0.56 nM. For the same compound, the “anti-tumor activity, MC38 colon carcinoma syngeneic model” value [4] was “Potent anti-tumor activity”.
